Results: publication PMC7178819, “6,7-Dimethoxy-2-phenethyl-1,2,3,4-tetrahydroisoquinoline amides and corresponding ester isosteres as multidrug resistance reversers” (Journal of Enzyme Inhibition and Medicinal Chemistry, 2020)
Marks after values point to notes of the source that are not given here.

Assays:
[1] = Stability test in human plasma (LC-MS/MS); assay type: in vitro ADME; settings: human, human plasma, 1 µM, 37 °C
In short: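 Analyte at 1 µM in human plasma or PBS; after incubation, internal standard added, centrifuged, supernatant dried and redissolved in formic acid/acetonitrile 80:20. LC-MS/MS in MRM mode; first-order degradation rate k taken as slope of ln concentration versus incubation time.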

BCRP = target: T1, BCRP (Homo sapiens, UniProt Q9UNQ0); assay: Inhibition of Hoechst 33342 efflux in MDCK-BCRP cells; assay type: cell-based; settings: for EC50: Hoechst 33342, MDCK-BCRP cells, NA: not active; for BCRP, percentage of the effect: at a concentration of 100 μM, MDCK-BCRP cells
T1 construct: expressed in transfected cells; host or cells: MDCK-BCRP (Madin-Darby Canine Kidney cells, gift of Prof. P. Borst, NKI-AVL)
T1 sequence (Q9UNQ0 1-655): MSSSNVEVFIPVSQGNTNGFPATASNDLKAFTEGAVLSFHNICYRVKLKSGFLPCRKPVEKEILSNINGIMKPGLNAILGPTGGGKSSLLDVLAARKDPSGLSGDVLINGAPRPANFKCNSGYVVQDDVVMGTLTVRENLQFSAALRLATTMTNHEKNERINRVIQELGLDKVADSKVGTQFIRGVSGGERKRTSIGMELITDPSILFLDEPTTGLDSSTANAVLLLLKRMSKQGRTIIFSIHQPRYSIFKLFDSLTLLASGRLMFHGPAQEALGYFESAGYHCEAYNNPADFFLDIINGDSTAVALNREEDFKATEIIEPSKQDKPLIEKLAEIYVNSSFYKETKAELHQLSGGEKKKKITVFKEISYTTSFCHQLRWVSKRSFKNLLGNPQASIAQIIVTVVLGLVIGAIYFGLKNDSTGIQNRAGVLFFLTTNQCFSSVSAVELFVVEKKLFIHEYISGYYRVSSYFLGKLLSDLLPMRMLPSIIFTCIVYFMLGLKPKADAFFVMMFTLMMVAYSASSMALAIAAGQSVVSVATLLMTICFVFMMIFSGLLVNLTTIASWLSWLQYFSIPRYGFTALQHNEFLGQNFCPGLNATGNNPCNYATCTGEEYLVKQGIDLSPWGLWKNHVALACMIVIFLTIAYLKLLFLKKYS
Method: These experiments were carried out as described by Teodori et al.[34]. Each cell line (30 000 cells per well) was seeded into black CulturePlate 96/wells plate with 100 µL medium and allowed to become confluent overnight. 100 µL of test compounds were solubilised in culture medium and added to monolayers, with final concentrations ranging from 1 to 100 µM. 96/Wells plate was incubated for 30 min in a humidified atmosphere 5% CO2 at 37 °C. Hoechst 33342 was added in 100 µl of phosphate-buffered saline (PBS) to yield a final concentration of 8 µM and plate was incubated for 30 min in a humidified atmosphere 5% CO2 at 37 °C. The supernatants were drained, and the cells were fixed for 20 min under light protection using 100 µL per well of a 4% PFA solution. Each well was washed three times with ice cold PBS. Saline buffer was added to each well and the plate was read with Victor3 (PerkinElmer) at excitation and emission wavelengths of 340/35 nm and 485/20 nm, respectively. In these experimental conditions, Hoechst 33342 accumulation in the absence and in the presence of tested compounds was evaluated and fluorescence basal level was estimated with untreated cells. In treated wells, the increase of fluorescence with respect to basal level was measured. EC50 values were determined by fitting the fluorescence increase percentage versus log[dose]. […]

P-gp = target: T2, P-gp (Homo sapiens, UniProt P08183); assay: ATP cell depletion (ATPlite assay) in MDCK-MDR1 cells; assay type: cell-based; settings: Yes/No
T2 construct: expressed in transfected cells; host or cells: MDCK-MDR1 (Madin-Darby Canine Kidney cells, gift of Prof. P. Borst, NKI-AVL)
In short: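 MDCK-MDR1 cells seeded at 20,000 per well and grown overnight were treated 2 h at 37 °C, 5% CO2 with compounds at 1 to 100 µM. After cell lysis and substrate addition, luminescence was measured following ten minutes of dark adaptation as the readout of cellular ATP.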

T2 sequence (P08183 whole entry): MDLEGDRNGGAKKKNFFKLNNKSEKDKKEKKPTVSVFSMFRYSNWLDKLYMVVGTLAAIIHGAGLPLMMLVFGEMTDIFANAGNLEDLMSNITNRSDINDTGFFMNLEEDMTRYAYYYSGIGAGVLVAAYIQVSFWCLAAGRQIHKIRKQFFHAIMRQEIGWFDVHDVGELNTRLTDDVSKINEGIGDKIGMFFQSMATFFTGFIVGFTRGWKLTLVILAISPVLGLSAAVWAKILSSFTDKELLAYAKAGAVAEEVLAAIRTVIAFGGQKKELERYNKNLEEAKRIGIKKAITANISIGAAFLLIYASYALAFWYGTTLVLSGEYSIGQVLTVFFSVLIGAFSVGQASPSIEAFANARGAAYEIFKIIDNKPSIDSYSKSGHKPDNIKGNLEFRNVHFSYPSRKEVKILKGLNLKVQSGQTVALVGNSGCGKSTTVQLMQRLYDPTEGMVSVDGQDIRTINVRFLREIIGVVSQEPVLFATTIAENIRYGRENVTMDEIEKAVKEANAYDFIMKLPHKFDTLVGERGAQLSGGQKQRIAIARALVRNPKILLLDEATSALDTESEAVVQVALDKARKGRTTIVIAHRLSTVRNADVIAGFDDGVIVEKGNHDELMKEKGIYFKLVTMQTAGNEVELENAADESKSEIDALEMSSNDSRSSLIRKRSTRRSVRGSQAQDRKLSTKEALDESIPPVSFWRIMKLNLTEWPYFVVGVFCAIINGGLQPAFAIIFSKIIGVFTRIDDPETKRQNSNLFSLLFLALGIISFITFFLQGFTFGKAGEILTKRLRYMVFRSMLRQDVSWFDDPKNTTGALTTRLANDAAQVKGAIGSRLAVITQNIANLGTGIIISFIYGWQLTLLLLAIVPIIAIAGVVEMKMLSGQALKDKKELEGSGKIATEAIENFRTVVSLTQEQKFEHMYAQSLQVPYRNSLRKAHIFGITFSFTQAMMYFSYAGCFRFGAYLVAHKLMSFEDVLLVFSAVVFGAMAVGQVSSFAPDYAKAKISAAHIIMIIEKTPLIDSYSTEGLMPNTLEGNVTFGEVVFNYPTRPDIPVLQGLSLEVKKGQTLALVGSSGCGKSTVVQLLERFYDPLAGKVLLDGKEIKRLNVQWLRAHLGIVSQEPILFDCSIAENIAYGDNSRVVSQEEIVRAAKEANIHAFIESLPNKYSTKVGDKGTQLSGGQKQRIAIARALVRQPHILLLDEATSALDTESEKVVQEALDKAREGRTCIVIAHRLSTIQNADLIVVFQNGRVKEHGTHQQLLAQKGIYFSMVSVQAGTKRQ

Structure (SMILES)	half-life at 1 µM [1] [h]	EC50 (BCRP) [µM]	ATP cell depletion (P-gp)	BCRP, percentage of the effect (BCRP) [%^d]
COc1cc2c(cc1OC)CN(CCc1ccc(OC(=O)c3c(OC)ccc4ccccc34)cc1)CC2 [Compound 20, 4–(2-(6,7-Dimethoxy-3,4-dihydroisoquinolin-2(1H)-yl)ethyl)phenyl 2-methoxy-1-naphthoate]	≥ 4	7.3 ± 1.4	No	–
COc1cc2c(cc1OC)CN(CCc1ccc(NC(=O)c3ccc(OC)c(OC)c3OC)cc1)CC2 [Compound 1, N-(4–(2-(6,7-dimethoxy-3,4-dihydroisoquinolin-2(1H)-yl)ethyl)phenyl)-2,3,4-trimethoxybenzamide]	≥ 4	21.2 ± 4.2	No	–
COc1cc2c(cc1OC)CN(CCc1ccc(OC(=O)c3cccc4ccccc34)cc1)CC2 [Compound 19, 4–(2-(6,7-Dimethoxy-3,4-dihydroisoquinolin-2(1H)-yl)ethyl)phenyl 1-naphthoate]	≥ 4	–	No	35
COc1ccc(C(=O)Oc2ccc(CCN3CCc4cc(OC)c(OC)cc4C3)cc2)c(OC)c1 [Compound 16, 4–(2-(6,7-Dimethoxy-3,4-dihydroisoquinolin-2(1H)-yl)ethyl)phenyl 2,4-dimethoxybenzoate]	1.47 ± 0.367	11 ± 2	No	–
COc1cc2c(cc1OC)CN(CCc1ccc(OC(=O)c3cccc(OC)c3OC)cc1)CC2 [Compound 18, 4–(2-(6,7-Dimethoxy-3,4-dihydroisoquinolin-2(1H)-yl)ethyl)phenyl 2,3-dimethoxybenzoate]	0.9 ± 0.15	–	No	44
COc1cc2c(cc1OC)CN(CCc1ccc(OC(=O)c3ccccc3OC)cc1)CC2 [Compound 15, 4–(2-(6,7-Dimethoxy-3,4-dihydroisoquinolin-2(1H)-yl)ethyl)phenyl 2-methoxybenzoate]	1.05 ± 0.233	–	No	47
COc1cc2c(cc1OC)CN(CCc1ccc(OC(=O)c3ccc(OC)c(OC)c3OC)cc1)CC2 [Compound 14, 4–(2-(6,7-Dimethoxy-3,4-dihydroisoquinolin-2(1H)-yl)ethyl)phenyl 2,3,4-trimethoxybenzoate]	≥ 4	15.1 ± 2.89	No	–
COc1cc2c(cc1OC)CN(CCc1ccc(OC(=O)c3c(OC)c(OC)cc4ccccc34)cc1)CC2 [Compound 21, 4–(2-(6,7-Dimethoxy-3,4-dihydroisoquinolin-2(1H)-yl)ethyl)phenyl 2,3-dimethoxy-1-naphthoate]	≥ 4	–	No	43
COc1cc2c(cc1OC)CN(CCc1ccc(NC(=O)c3cccc(OC)c3OC)cc1)CC2 [Compound 5, N-(4–(2-(6,7-dimethoxy-3,4-dihydroisoquinolin-2(1H)-yl)ethyl)phenyl)-2,3-dimethoxybenzamide]	≥ 4	–	No	41
COc1ccc(C(=O)Nc2ccc(CCN3CCc4cc(OC)c(OC)cc4C3)cc2)c(OC)c1 [Compound 3, N-(4–(2-(6,7-dimethoxy-3,4-dihydroisoquinolin-2(1H)-yl)ethyl)phenyl)-2,4-dimethoxybenzamide]	≥ 4	1 ± 0.2	No	–
COc1cc2c(cc1OC)CN(CCc1ccc(NC(=O)c3c(OC)c(OC)cc4ccccc34)cc1)CC2 [Compound 8, N-(4–(2-(6,7-dimethoxy-3,4-dihydroisoquinolin-2(1H)-yl)ethyl)phenyl)-2,3-dimethoxy-1-naphthamide]	≥ 4	–	No	–
